Measurements reported in patent publication US5977063A, “Alkylated hexapeptides” (Eli Lilly and Company, priority 1998, dated 1999).

Legend:
Type in all cases: cell-based
[1] = system: Streptococcus pyogenes C203; assay: MIC, standard broth micro-dilution assay, SPY C203; set-up: unit not given here
Experimental: (§1) The antibacterial efficacy of the present compounds is illustrated by Table II. The minimal inhibitory concentrations (MICs) were determined using a standard broth micro-dilution assay.

[2] = system: Staphylococcus aureus 489; assay: MIC, standard broth micro-dilution assay, SA 489; set-up: unit not given here
Experimental: as §1

[3] = system: Enterococcus faecium and faecalis (RESISTANT); conditions: geometric mean of 4-6 isolates
Experimental: as §1

[4] = system: Staphylococcus epidermidis 270; assay: MIC, standard broth micro-dilution assay, SE 270; set-up: unit not given here
Experimental: as §1

[5] = system: Staphylococcus haemolyticus 415; assay: MIC, standard broth micro-dilution assay, SH 415; set-up: unit not given here
Experimental: as §1

[6] = system: Staphylococcus aureus 447; assay: MIC, standard broth micro-dilution assay, SA 447; set-up: unit not given here
Experimental: as §1

[7] = system: Enterococcus faecium and faecalis (SENSITIVE); assay: MIC, standard broth micro-dilution assay, SENSITIVE enterococci; set-up: unit not given here; conditions: geometric mean of 4-6 isolates
Experimental: as §1

[8] = system: Streptococcus pneumoniae P1; assay: MIC, standard broth micro-dilution assay, SPN P1; set-up: unit not given here
Experimental: as §1

[9] = system: Staphylococcus haemolyticus 105; assay: MIC, standard broth micro-dilution assay, SH 105; set-up: unit not given here
Experimental: as §1

[10] = system: Staphylococcus aureus 446; assay: MIC, standard broth micro-dilution assay, SA 446; set-up: unit not given here
Experimental: as §1

SMILES: CCCCCCN[C@H]1C(=O)N[C@@H](CC(N)=O)C(=O)N[C@H]2C(=O)N[C@H]3C(=O)N[C@H](C(=O)N[C@H](C(=O)O)c4cc(O)cc(O)c4-c4cc3ccc4O)[C@H](O[C@H]3C[C@](C)(N)[C@@H](O)[C@H](C)O3)c3ccc(c(Cl)c3)Oc3cc2cc(c3O[C@@H]2O[C@H](CO)[C@@H](O)[C@H](O)[C@H]2O[C@H]2C[C@](C)(NCc3ccc(-c4ccccc4)cc3)[C@@H](O)[C@H](C)O2)Oc2ccc(cc2Cl)[C@H]1O [Example 11, N^1 -n-HEXYL-N^DISACC -(p-PHENYLBENZYL)-DESLEUCYL-A82846B]
- Minimal Inhibitory Concentration (MIC) SPY C203 [1]: 0.125
- Minimal Inhibitory Concentration (MIC) SA 489 [2]: 1
- Minimal Inhibitory Concentration (MIC) RESISTANT [3]: 27
- Minimal Inhibitory Concentration (MIC) SE 270 [4]: 0.5
- Minimal Inhibitory Concentration (MIC) SH 415 [5]: 1
- Minimal Inhibitory Concentration (MIC) SA 447 [6]: 0.5
- Minimal Inhibitory Concentration (MIC) SENSITIVE [7]: 11
- Minimal Inhibitory Concentration (MIC) SPN P1 [8]: 0.125
- Minimal Inhibitory Concentration (MIC) SH 105 [9]: 2
- Minimal Inhibitory Concentration (MIC) SA 446 [10]: 1

SMILES: C[C@@H]1O[C@@H](O[C@@H]2c3ccc(c(Cl)c3)Oc3cc4cc(c3O[C@@H]3O[C@H](CO)[C@@H](O)[C@H](O)[C@H]3O[C@H]3C[C@](C)(NCc5ccc(-c6ccccc6)cc5)[C@@H](O)[C@H](C)O3)Oc3ccc(cc3Cl)[C@@H](O)[C@@H](NCc3ccc(-c5ccccc5)cc3)C(=O)N[C@@H](CC(N)=O)C(=O)N[C@H]4C(=O)N[C@H]3C(=O)N[C@@H]2C(=O)N[C@H](C(=O)O)c2cc(O)cc(O)c2-c2cc3ccc2O)C[C@](C)(N)[C@H]1O [Example 4, N^1,N^DISACC -BIS(p-PHENYLBENZYL)-DESLEUCYL-A82846B]
- Minimal Inhibitory Concentration (MIC) SPY C203 [1]: ≤ .06
- Minimal Inhibitory Concentration (MIC) SA 489 [2]: 2
- Minimal Inhibitory Concentration (MIC) RESISTANT [3]: 53
- Minimal Inhibitory Concentration (MIC) SE 270 [4]: 2
- Minimal Inhibitory Concentration (MIC) SH 415 [5]: 2
- Minimal Inhibitory Concentration (MIC) SA 447 [6]: 2
- Minimal Inhibitory Concentration (MIC) SENSITIVE [7]: 21
- Minimal Inhibitory Concentration (MIC) SPN P1 [8]: ≤ .06
- Minimal Inhibitory Concentration (MIC) SH 105 [9]: 2
- Minimal Inhibitory Concentration (MIC) SA 446 [10]: 4

SMILES: CCCCCCN[C@H]1C(=O)N[C@@H](CC(N)=O)C(=O)N[C@H]2C(=O)N[C@H]3C(=O)N[C@H](C(=O)N[C@H](C(=O)O)c4cc(O)cc(O)c4-c4cc3ccc4O)[C@H](O[C@H]3C[C@](C)(NCCCCCC)[C@@H](O)[C@H](C)O3)c3ccc(c(Cl)c3)Oc3cc2cc(c3O[C@@H]2O[C@H](CO)[C@@H](O)[C@H](O)[C@H]2O[C@H]2C[C@](C)(NCCCCCC)[C@@H](O)[C@H](C)O2)Oc2ccc(cc2Cl)[C@H]1O [Example 8, N^1,N^DISACC,N^MONOSACC -TRI-n-HEXYLDESLEUCYL-A82846B]
- Minimal Inhibitory Concentration (MIC) SPY C203 [1]: 1
- Minimal Inhibitory Concentration (MIC) SA 489 [2]: 8
- Minimal Inhibitory Concentration (MIC) RESISTANT [3]: 76
- Minimal Inhibitory Concentration (MIC) SE 270 [4]: 8
- Minimal Inhibitory Concentration (MIC) SH 415 [5]: 16
- Minimal Inhibitory Concentration (MIC) SA 447 [6]: 8
- Minimal Inhibitory Concentration (MIC) SENSITIVE [7]: 55
- Minimal Inhibitory Concentration (MIC) SPN P1 [8]: 2
- Minimal Inhibitory Concentration (MIC) SH 105 [9]: 4
- Minimal Inhibitory Concentration (MIC) SA 446 [10]: 16

SMILES: C[C@@H]1O[C@@H](O[C@@H]2c3ccc(c(Cl)c3)Oc3cc4cc(c3O[C@@H]3O[C@H](CO)[C@@H](O)[C@H](O)[C@H]3O[C@H]3C[C@](C)(NCc5ccc(-c6ccccc6)cc5)[C@@H](O)[C@H](C)O3)Oc3ccc(cc3Cl)[C@@H](O)[C@@H](NCc3ccc(O)cc3)C(=O)N[C@@H](CC(N)=O)C(=O)N[C@H]4C(=O)N[C@H]3C(=O)N[C@@H]2C(=O)N[C@H](C(=O)O)c2cc(O)cc(O)c2-c2cc3ccc2O)C[C@](C)(N)[C@H]1O [Example 17, N^1 -(p-HYDROXYBENZYL)-N^DISACC -(p-PHENYLBENZYL)-DESLEUCYL-A82846B]
- Minimal Inhibitory Concentration (MIC) SPY C203 [1]: ≤ .06
- Minimal Inhibitory Concentration (MIC) SA 489 [2]: 1
- Minimal Inhibitory Concentration (MIC) RESISTANT [3]: 27
- Minimal Inhibitory Concentration (MIC) SE 270 [4]: 0.5
- Minimal Inhibitory Concentration (MIC) SH 415 [5]: 1
- Minimal Inhibitory Concentration (MIC) SA 447 [6]: 0.5
- Minimal Inhibitory Concentration (MIC) SENSITIVE [7]: 2.6
- Minimal Inhibitory Concentration (MIC) SPN P1 [8]: ≤ .06
- Minimal Inhibitory Concentration (MIC) SH 105 [9]: 0.5
- Minimal Inhibitory Concentration (MIC) SA 446 [10]: 1

SMILES: C[C@@H]1O[C@@H](O[C@@H]2c3ccc(c(Cl)c3)Oc3cc4cc(c3O[C@@H]3O[C@H](CO)[C@@H](O)[C@H](O)[C@H]3O[C@H]3C[C@](C)(NCc5ccc(-c6ccccc6)cc5)[C@@H](O)[C@H](C)O3)Oc3ccc(cc3Cl)[C@@H](O)[C@@H](NCc3ccc(-c5cc(C(F)(F)F)cc(C(F)(F)F)c5)cc3)C(=O)N[C@@H](CC(N)=O)C(=O)N[C@H]4C(=O)N[C@H]3C(=O)N[C@@H]2C(=O)N[C@H](C(=O)O)c2cc(O)cc(O)c2-c2cc3ccc2O)C[C@](C)(N)[C@H]1O [Example 26, N^1 -(p-(3,5-BIS-(TRIFLUOROMETHYL)-PHENYL)BENZYL)-N^DISACC -(p-PHENYLBENZYL)-DESLEUCYL-A82846B]
- Minimal Inhibitory Concentration (MIC) SPY C203 [1]: 0.25
- Minimal Inhibitory Concentration (MIC) SA 489 [2]: 4
- Minimal Inhibitory Concentration (MIC) RESISTANT [3]: 5.7
- Minimal Inhibitory Concentration (MIC) SE 270 [4]: 4
- Minimal Inhibitory Concentration (MIC) SH 415 [5]: 4
- Minimal Inhibitory Concentration (MIC) SA 447 [6]: 4
- Minimal Inhibitory Concentration (MIC) SENSITIVE [7]: 6.1
- Minimal Inhibitory Concentration (MIC) SPN P1 [8]: ≤ .06
- Minimal Inhibitory Concentration (MIC) SH 105 [9]: 2
- Minimal Inhibitory Concentration (MIC) SA 446 [10]: 8

SMILES: C[C@@H]1O[C@@H](O[C@@H]2c3ccc(c(Cl)c3)Oc3cc4cc(c3O[C@@H]3O[C@H](CO)[C@@H](O)[C@H](O)[C@H]3O[C@H]3C[C@](C)(NCc5ccc(-c6ccccc6)cc5)[C@@H](O)[C@H](C)O3)Oc3ccc(cc3Cl)[C@@H](O)[C@@H](NCCCCCCCCCCCCc3ccccc3)C(=O)N[C@@H](CC(N)=O)C(=O)N[C@H]4C(=O)N[C@H]3C(=O)N[C@@H]2C(=O)N[C@H](C(=O)O)c2cc(O)cc(O)c2-c2cc3ccc2O)C[C@](C)(N)[C@H]1O [Example 2, N^1 -(12-PHENYL-n-DODECYL)-N^DISACC -(p-PHENYLBENZYL)-DESLEUCYL-A82846B]
- Minimal Inhibitory Concentration (MIC) SPY C203 [1]: 4
- Minimal Inhibitory Concentration (MIC) SA 489 [2]: 64
- Minimal Inhibitory Concentration (MIC) RESISTANT [3]: 45
- Minimal Inhibitory Concentration (MIC) SE 270 [4]: 32
- Minimal Inhibitory Concentration (MIC) SH 415 [5]: > 64
- Minimal Inhibitory Concentration (MIC) SA 447 [6]: > 64
- Minimal Inhibitory Concentration (MIC) SENSITIVE [7]: 24
- Minimal Inhibitory Concentration (MIC) SPN P1 [8]: ≤ .06
- Minimal Inhibitory Concentration (MIC) SH 105 [9]: > 64
- Minimal Inhibitory Concentration (MIC) SA 446 [10]: 32
